{
  "source": "patent US20120196766A1",
  "about": "“Therapeutic Use of Farnesyltransferase Inhibitors and Methods of Monitoring the Efficacy Thereof” (priority 2004, published 2012)",
  "key": {"NF-κB": {"test_system": "NF-κB", "details": "cited from earlier work"}, "BALB/c mice": {"test_system": "BALB/c mice", "assay": "LPS-induced cytokine production in vivo (murine model of LPS-induced inflammation)", "details": "Mus musculus; 50 mg/kg oral before LPS; 2 hours, first experiment; read-out: inhibition of MIP-1α production", "experimental": "The experiments were performed on female BALB/c mice (6-7 week old; Charles River Laboratories, Inc. MA). […] The control mice received the vehicle (20% cyclodextran) only. 20 μg LPS (Sigma), diluted in PBS, was injected into each mouse intraperitoneally. Blood samples were collected either by eye bleeding or cardiac puncture at 1 and 2 hours after LPS injection in one experiment, and at 2 and 3 hours after LPS injection in a second experiment. Plasma samples were collected by centrifugation, and stored at ≦−20° C. before being tested for cytokines using individual ELISA kits or Luminex analysis (see below).\n(§1) Human IL-6, IL18, IL1β, MCP-1, MMP-9, and mouse IL-6, IL18, TNFα, MCP-1 and IL-1β were measured with ELISA kits (R&D Systems) according to the manufacturer's instructions.\nSamples were tested for cytokines using the Bio-plex cytokine assay kit (Bio-Rad Laboratories, Inc.) according to the manufacturer's instructions. Briefly, 50 μL anti-cytokine antibody conjugated beads were added to wells of a filter plate pre-equilibrated with assay buffer. The beads were washed, then 50 μL of undiluted cell culture supernatant or 4-fold diluted plasma samples were added and incubated for 2 hours. Biotinylated anti-cytokine antibody (25 μL) was added to each well and the plate was incubated with shaking for 1.5 hours. Streptavidin-PE (50 μL) was added to each well and the plate was incubated with shaking for 45 min. between incubations, wells were washed 3 times with 100 μL wash buffer and unbound analytes were filtered using a vacuum manifold. Following the last wash step, 125 μL of assay buffer was added to each well and the plate was placed on a shaker for 10 min. The plate was read on a Luminex^100 instrument (Luminex Corporation, Austin, Tex.) according to the manufacturer's instructions. The concentration of cytokine was determined from a standard curve assayed at the same time."}, "human PBMC": {"test_system": "human PBMC", "assay": "LPS-induced cytokine production in human PBMC", "format": "cell-based", "details": "2 or 5 μM, LPS 10 ng/ml, 10% FBS", "experimental": "as §1\nHeparinized human blood (25 ml) from a healthy donor was overlaid into a 50 ml conical tubes containing 20 ml Ficoll-Paque, and centrifuged for 20 min at 2000 rpm at room temperature and then allowed to stop without using the brake on the centrifuge. The upper layer was aspirated, leaving the mononuclear cell layer undisturbed at the interface. Cells were carefully transferred the to a new […] conical tube. The conical tube was filled with PBS, mixed and centrifuged at 1500 rpm for 15 minutes at room temperature. The supernatant was carefully and completely removed. The cell pellet was resupended in 50 ml of PBS and centrifuged at 1500 rpm for 5 minutes. This wash step was repeated once more. The cells were counted and resuspended cells at 1.7×10^6/ml in low-endotoxin RPMI1640/10% FBS.\nHuman PBMC (180 μl at 1.7×10^6/ml) were pipetted into each well of a 96-well plate. […] Cells were incubated at 37° C., under 5% CO2 for 1 hour, then 10 μl LPS (diluted in medium) were added per well to reach a final concentration of 10 ng/ml. Cells were cultured at 37° C., under 5% CO2. Supernatants were collected at 16 hours, 24 hours and 40 hours of LPS treatment, and IL-6 secretion was quantified."}, "farnesyltransferase": {"target": "farnesyltransferase (Homo sapiens, UniProt P49354+P49356)", "details": "cited from earlier work"}},
  "data": [
    {"compound": "NC(=O)N1CCC(CC(=O)N2CCC([C@H]3c4ncc(Br)cc4CCc4cc(Cl)cc(Br)c43)CC2)CC1", "note": "[SCH 66336, (+)-(R)-4-[2-[4-(3,10-dibromo-8-chloro-5,6-dihydro-11H-benzo[5,6]cyclohepta[1,2-b]pyridin-11-yl)piperidin-1-yl]-2-oxoethyl]piperidine-1-carboxamide]", "values": [
      {"measurement": "TNF-α induced NF-κB activity", "setting": "NF-κB", "value": "inhibited"}
    ]},
    {"compound": "CCC(C)(C)C(=O)O[C@H]1C[C@@H](C)C=C2C=C[C@H](C)[C@H](CC[C@@H]3C[C@@H](O)CC(=O)O3)[C@H]21", "note": "[simvastatin]", "values": [
      {"measurement": "inhibition at 50 mg/kg", "setting": "BALB/c mice", "value": "~50", "unit": "%"}
    ]},
    {"compound": "Cn1cncc1C(N)(c1ccc(Cl)cc1)c1ccc2c(c1)c(-c1cccc(Cl)c1)cc(=O)n2C", "note": "(single isomer, unassigned) [less active enantiomer]", "values": [
      {"measurement": "LPS-induced IL-6 production", "setting": "human PBMC", "value": "No difference in production"},
      {"measurement": "fold less active than tipifarnib (R115777) for inhibition of farnesyltransferase", "setting": "farnesyltransferase", "value": "about 100 fold"}
    ]}
  ]
}
